Experimental data taken from US20250345512A1, “COMBINATION SODIUM-GLUCOSE COTRANSPORTER INHIBITOR (SGLTI) INSULIN THERAPY FOR GLYCEMIC CONTROL IN TYPE 1 DIABETES” (University of Virginia Patent Foundation, priority 2022, published 2025).

System: participants with T1D
Test: Randomized crossover clinical trial (NCT04201496): CGM glycemic outcomes with 5 mg daily empagliflozin adjunctive to AID (Control-IQ, CIQ) or PLGS (Basal-IQ, BIQ)
Assay type: in vivo, human
Method: FIG. 2 presents a study analysis relative to baseline, control IQ (CIQ) (e.g., AID), and basal IQ (BIQ) (e.g., PLGS) implementation, according to investigation that is demonstrable of one or more embodiments herein. Therein, an experimental arm (G1, G2) providing an initial daily dose of 5 mg empagliflozin (EMPA) is depicted against a control arm (G3, G4) without such dosing (NOEMPA). Relative characteristics of the analysis are provided below.
Study Design: A single-center, randomized, controlled, unblinded, crossover clinical trial (NCT04201496) compared four parallel groups, two groups in the experimental arm (EMPA) with 5 mg daily empagliflozin as adjunctive therapy to PLGS or AID, and two groups in the control arm (NOEMPA) with no drug and with a PLGS system (Basal-IQ, Tandem Diabetes Care) or AID system (Control-IQ, Tandem Diabetes Care). The groups within each arm differed from one another in the order of the randomly assigned crossover technological intervention, relative to PLGS being followed by AID or AID being followed by PLGS, respectively (FIG. 4). The study protocol was approved by the University of Virginia Institutional Review Board (IRB). An investigational device exemption (IDE), including an investigational new drug (IND) application for empagliflozin, was approved by the FDA. Safety aspects were overseen by an external data and safety monitoring board (DSMB). Participants: Major inclusion criteria were T1D treated with insulin for at least one year, use of continuous subcutaneous insulin infusion therapy for at least six months, age 18-65 yrs., no use of glucose lowering agents other than insulin, and Hb1Ac<9% (75 mmol/mol). Randomization: A (1:1:1:1) randomization assigned participants to either Group 1, AID-EMPA (4 weeks) followed by PLGS-EMPA (2 weeks), Group 2, PLGS-EMPA (2 weeks) followed by AID-EMPA (4 weeks), Group 3, AID-NOEMPA (4 weeks) followed by PLGS-NOEMPA (2 weeks), and Group 4, PLGS-NOEMPA (2 weeks) followed by AID-NOEMPA (4 weeks). Procedures: After confirmation of eligibility, participants underwent study equipment and medication training (experimental arm), or only study equipment training (control arm). Study equipment consisted of Dexcom G6® CGM (Dexcom Inc., San Diego, CA), Contour® Next blood glucose (Ascensia Diabetes Care, Basel, Switzerland) and Precision Xtra® blood ketone meters (Abbott, Alameda, CA) with their respective test strips; infusion sets, and the use of the t:slim X2™ insulin pump with Basal-IQ or Control-IQ technologies (Tandem Diabetes Care, San Diego, CA), according to randomization. […] Participants in the experimental arm were asked to record two days of baseline ketone values before initiating the use of the study drug. Thereafter, participants were directed to use the study CGM with EMPA for 1-2 weeks. A tolerance to the medication was assessed prior to the starting of the next study phase, including adherence to the protocol, ketone testing 2-4 times per day with monitored values not greater than 0.6 mmol/L on at least two successive occasions (the first testing upon waking in a fasted state), no adverse events relating to perineal infection or symptomatic postural hypotension, and no evidence of significant hypoglycemia <54 mg/dL, or any other listed adverse effects of the medication. Participants in the control arm were directed to use the study CGM for 1-2 weeks. Sample Size: The total sample size was projected to be 40 participants, assuming 1) 1:1:1:1 randomization; 2) 90% power and type 1 error a=0.01, further reinforcing the feasibility of hierarchical analyses. The projected recruitment sample was n=50, to accommodate up to 20% attrition rate without sacrificing statistical power. Analytical methods: For the primary analysis, TIR during the day in the 4-week AID period was compared between the two EMPA groups versus the two NOEMPA groups using a linear mixed-effects regression model while adjusting for pre-randomization HbAlc and age. […]

[1] = EMPA minus NOEMPA on same insulin system, adjusted for HbA1c
[2] = daytime (7:00-23:00), CIQ-EMPA vs. BIQ-NOEMPA, BIQ-EMPA vs. CIQ-NOEMPA
[3] = daytime (7:00-23:00), CIQ-EMPA vs. CIQ-NOEMPA, BIQ-EMPA vs. BIQ-NOEMPA
[4] = daytime (7:00-23:00), n = 16, mean ± SD
[5] = daytime (7:00-23:00), n = 16, median (IQR)

`OC[C@H]1O[C@@H](c2ccc(Cl)c(Cc3ccc(O[C@H]4CCOC4)cc3)c2)[C@H](O)[C@@H](O)[C@@H]1O` [BIQ-EMPA, empagliflozin] was tested, and the “24/7 HBGI - median (IQR)” value (24/7, n = 17) was 3.3(1.8-4.7), the “24/7 LBGI - median (IQR)” value (24/7, n = 17) was 0.7(0.6-1) and the “24/7 glucose level <70 mg/dL (<3.9 mmol/L) - median % time (IQR)” value (24/7, n = 17) was 1.7(0.9-2.7) %. For the same molecule, the “24/7 Mean glucose level -” value (24/7, n = 17, mean ± SD) was 141 ± 30 mg/dL, the “Difference (95% CI): 24/7 HBGI” value [1] was −3.7(−6.5 to −1) and the “Difference (95% CI): 24/7 LBGI” value [1] was 0.1(−0.3 to 0.6). The “Difference (95% CI): 24/7 Mean glucose level” value [1] was −24.1(−42.2 to −6) mg/dL, the “Difference (95% CI): 24/7 glucose level <70 mg/dL % time” value [1] was 0.2(−1.7 to 2.1) percentage points and the “Difference (95% CI): Daytime CGM CV” value [1] was −4.0(−6.8 to −1.2) %. The “Difference (95% CI): Daytime CGM SD” value [1] was −13.2(−21.6 to −4.8) mg/dL, the “Difference (95% CI): daytime glucose % Time in range of 70 to 180 mg/dL” value (EMPA minus NOEMPA on same insulin system, adjusted for pre-randomization HbA1c) was 16.5(7.3 to 26) ^ percentage points and the “Primary: daytime glucose % Time in range of 70 to 180 mg/dL (3.9-10.0 mmol/L)” value (daytime 7:00 to 23:00 h, n = 17, mean ± SD) was 80 ± 14%. The “Difference (95% CI): % CGM time <50 mg/dL (<2.8 mmol/L)” value [2] was −0.3 percentage points, the “Difference (95% CI): % CGM time <60 mg/dL (<3.3 mmol/L)” value [2] was −0.2 percentage points and the “Difference (95% CI): % CGM time >180 mg/dL (>10.0 mmol/L)” value [2] was −9.5 percentage points. The “Difference (95% CI): % CGM time >250 mg/dL (>13.9 mmol/L)” value [2] was −2.2 percentage points, the “Difference (95% CI): % CGM time >300 mg/dL (>16.7 mmol/L)” value [2] was −0.4 percentage points and the “Difference (95% CI): CGM HBGI” value [2] was −1.9. For the same molecule, the “Difference (95% CI): CGM LBGI” value [2] was 0.3, the “Difference (95% CI): CGM SD” value [2] was -7.1 mg/dL and the “Difference (95% CI): Mean CGM glucose” value [2] was -14.9 mg/dL. For the same molecule, the “Difference (95% CI): % CGM time 70-140 mg/dL (<3.9-7.8 mmol/L)” value [3] was 17.6 percentage points, the “Difference (95% CI): % CGM time >180 mg/dL (>10.0 mmol/L)” value [3] was −16.7 percentage points and the “Difference (95% CI): % CGM time >250 mg/dL (>13.9 mmol/L)” value [3] was −7.6 percentage points. The “Difference (95% CI): % CGM time >300 mg/dL (>16.7 mmol/L)” value [3] was −2.7 percentage points, the “Difference (95% CI): CGM HBGI” value [3] was −4 and the “Difference (95% CI): CGM LBGI” value [3] was −0.3. For the same molecule, the “Difference (95% CI): CGM SD” value [3] was -13.2 mg/dL, the “Difference (95% CI): Mean CGM glucose” value [3] was -23.8 mg/dL and the “Difference (95% CI): % CGM time <70-180 mg/dL (3.9-10.0 mmol/L)” value (daytime (7:00-23:00), CIQ-EMPA vs. CIQ-NOEMPA, BIQ-EMPA vs. BIQ-NOEMPA, listed as PLGS-EMPA) was 16 percentage points. The “% CGM time 70-140 mg/dL (3.9-7.8 mmol/L)” value [4] was 58.1 ± 16.5%, the “% CGM time 70-180 mg/dL (3.9-10.0 mmol/L)” value [4] was 80 ± 14.5% and the “CGM CV (%)” value [4] was 35.7 ± 3.5%. The “CGM SD” value [4] was 45 ± 14.6 mg/dL, the “Mean CGM glucose” value [4] was 139 ± 26 mg/dL and the “% CGM time 70-180 mg/dL (3.9-10.0 mmol/L)” value (daytime (7:00-23:00), n = 16, mean ± SD, listed as PLGS-EMPA) was 80±14.5%. For the same molecule, the “% CGM time <50 mg/dL (<2.8 mmol/L)” value [5] was 0(0-0.4) %, the “% CGM time <60 mg/dL (<3.3 mmol/L)” value [5] was 0.5(0.1-0.9) % and the “% CGM time <70 mg/dL (<3.9 mmol/L)” value [5] was 1.7(0.9-2.7) %. The “% CGM time >180 mg/dL (>10.0 mmol/L)” value [5] was 11.3(5.3-22.4) %, the “% CGM time >250 mg/dL (>13.9 mmol/L)” value [5] was 1.7(0.1-4.4) % and the “% CGM time >300 mg/dL (>16.7 mmol/L)” value [5] was 0.1(0-0.8) %. For the same molecule, the “CGM HBGI” value [5] was 2.8(1.6-4.9), the “CGM LBGI” value [5] was 0.7(0.6-0.9) and the “Daytime CGM CV - %” value (daytime, n = 17, mean ± SD) was 30.4 ± 3.5%. For the same molecule, the “Daytime CGM SD -” value (daytime, n = 17, mean ± SD) was 44.9 ± 14.7 mg/dL and the “Difference: CGM HBGI” value (overall, CIQ-EMPA vs. BIQ-NOEMPA, BIQ-EMPA vs. CIQ-NOEMPA) was −1.6.
